The test has as its system hypertensive rats (SHR). Put plainly: Erectile responses (number of erections, intracavernous pressure) in anaesthetised hypertensive rats. As to conditions: for N animals with erections/N animals / Number of erections (mean ± sem): 30 min after infusion.
[1] abbreviates: alfuzosine 3, 10 or 30 μg/kg alone (i.v. infusion).
[2] abbreviates: Table 2, apomorphine 50 μg/kg alone.
Where [3] appears, read: apomorphine 10 μg/kg s.c. + 5% glucose infusion.
Setting [4] is: apomorphine 20 μg/kg s.c. + 5% glucose infusion.
The mark [5] stands for this setting: apomorphine 50 μg/kg s.c. + 5% glucose infusion.
The mark [6] stands for this setting: apomorphine 100 μg/kg s.c. + 5% glucose infusion.
Where [7] appears, read: apomorphine 250 μg/kg s.c. + 5% glucose infusion.

Each structure is given as a SMILES string.

For the molecule `COc1cc2nc(N(C)CCCNC(=O)C3CCCO3)nc(N)c2cc1OC` (stereo not shown) [Alfuzosine], under setting [1], the AUC is 0 mmHg · sec, the Duration of erection came out at 0 s, the “n animal with erections/n animal” value is 0/6 and the number of erections was 0. In addition, the “ΔICP” value under setting [1] is 0 mmHg. Also, for the setting “alfuzosine 3 to 100 μg/kg i.v. after vehicle of apomorphine”, the “induction of erections per se” value is on record as “Neither 5% glucose nor alfuzosine (3 to 100 μg/kg i.v.) was able to induce per se erections”.

On to `CN1CCc2cccc3c2[C@H]1Cc1ccc(O)c(O)c1-3` [Apomorphine], for which, under setting [2], the AUC is 640 ± 216 mmHg · sec, the Duration of erection was 105 ± 23 s, the “n animal with erections/n animal” value was 9/9 and the number of erections is recorded as 2.6 ± 0.4. For the same molecule, the “ΔICP” value under setting [2] is listed as 29 ± 7 mmHg. Further, under setting [3], the AUC turned out to be 0 mmHg · sec, the Duration was 0 s, the ΔICP worked out at 0 mmHg and the “N animals with erections/N animals” value is reported as 0/8. The “Number of erections (mean ± sem)” value under setting [3] was determined as 0. In addition, under setting [4], the AUC came out at 582 ± 172 mmHg · sec, the Duration worked out at 61 ± 7 s, the ΔICP came to 41.4 ± 13.9 mmHg and the “N animals with erections/N animals” value is 5/10. In addition, the “Number of erections (mean ± sem)” value under setting [4] is listed as 0.5000. Moreover, under setting [5], the AUC worked out at 640 ± 215 mmHg · sec, the Duration worked out at 105 ± 23 s, the ΔICP turned out to be 29.3 ± 6.5 mmHg and the “N animals with erections/N animals” value was 9/9. Also, the “Number of erections (mean ± sem)” value under setting [5] is reported as 2.5556. Further, under setting [6], the AUC stood at 501 ± 193 mmHg · sec, the Duration was 71 ± 19 s, the ΔICP was determined as 25.5 ± 8.2 mmHg and the “N animals with erections/N animals” value is 9/9. The “Number of erections (mean ± sem)” value under setting [6] is on record as 3.1111. Moreover, under setting [7], the AUC came out at 1073 ± 237 mmHg · sec, the Duration turned out to be 71 ± 19 s, the ΔICP is reported as 58.6 ± 9.7 mmHg and the “N animals with erections/N animals” value is listed as 6/6. In addition, the “Number of erections (mean ± sem)” value under setting [7] is on record as 5.0000. Moreover, where the note is “apomorphine 10-250 μg/kg s.c.”, the erectile responses entry is listed as “induced concentration-dependent erectile responses”. Further, under “apomorphine s.c.”, the “first dose triggering erections in some animals in comparison to the control group” value was 20 µg/kg and the “first dose which induced at least one erectile event in all the animals” value was 50 µg/kg. The same molecule registered a number of erections (text b79, apomorphine 50 μg/kg alone) of 2.6±0.4.

For the origin of these results see patent US20040063736A1, “Combination of active ingredients containing alfuzosine and apomorphine” (priority 2001, published 2004).
